Assay results from patent US20060135569A1, “Use of benzisoselenazolone compounds against ischemic myocardial damage” (priority 2002, published 2006).
Marks after values point to notes of the source that are not given here.

What was measured:
KM mice = test: Acute toxicity study in mice; type: in vivo; conditions: 5 g/kg; 10 mice per group, 7 days observation
Experimental: Acute toxicity studies were performed with IMM-004 and IMM-127 (synthesized by ourselves). The compound was provided as powder, which was milled and suspended in 0.5% carboxymethylcellulose sodium (CMC—Na) before use.
Male KM mice weighting 19±2 g were housed for an adaptation before use. Mice were randomly divided into groups, and each group consists of 10 animals. Mice were all fasted for 14 hrs before the administration of the tested compounds. Activity of mice in high dose group was reduced 30 min after the administration. 24 h after the administration, mice in each group were restored to normal. Mice were observed daily for a period of 7 days after the administration.

TA97 = test: Ames test, strain TA97; type: cell-based
Experimental: (§1) To assess the mutagenic effects of 5 compounds (IMM-004; IMM-065; IMM-127; IMM-128; IMM-313), the Ames test was performed in 4 strains (TA97; TA98; TA100; TA102). The experiment was conducted with compounds at 4 concentration levels (0.5, 5, 50 and 500 μg/dish). […]

[1] = system: isolated rat hearts subjected to ischemia-reperfusion (I/R); test: Isolated heart subjected to ischemia/reperfusion injury (arrhythmia); conditions: 10^−6 M; isolated heart ischemia/reperfusion
Method in brief: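 Rat hearts perfused in vitro and subjected to ischemia-reperfusion after drug exposure. Recorded endpoints: duration of ventricular arrhythmia and incidence of ventricular extrasystole and VT/VF.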

[2] = system: arrhythmia induced by ischemia/reperfusion insults in anesthetized rats; test: Ischemia/reperfusion arrhythmia in anesthetized rats, oral administration; type: in vivo, rat
Experimental: IMM-004 and IMM-127 were dissolved in the solution of ethanol and PEG (ethanol: PEG (v/v)=1:9). Rats were orally administrated the compounds at volume of 10 ml/Kg. The left anterior descending coronary artery was ligated in rats for 15 min at 60 min after the administration, and then the reprefusion was achieved.
Arrhythmic potency induced by myocardial insults was used to assess the potential protective effect of the compounds.

TA100 = test: Ames test, strain TA100; type: cell-based
Experimental: as §1

TA102 = test: Ames test, strain TA102; type: cell-based
Experimental: as §1

O=c1c2cc(F)ccc2[se]n1-c1ccccn1 [IMM-127, 5-fluoro-2-(2-pyridyl)-1,2-benz-isoselenazol-3(2H)-one]
Lethal cases (KM mice): 7
TA97 +S9 (TA97; 0.5 μg/dish): 60.67 ± 3.86
TA97 −S9 (TA97; 0.5 μg/dish): 60.00 ± 8.16
TA97 +S9 (TA97; 5 μg/dish): 59.67 ± 8.18
TA97 −S9 (TA97; 5 μg/dish): 56.67 ± 13.27
TA97 +S9 (TA97; 50 μg/dish): 68.50 ± 2.50
TA97 −S9 (TA97; 50 μg/dish): 60.33 ± 3.77
TA97 +S9 (TA97; 500 μg/dish): 48.00 ± 2.16
TA97 −S9 (TA97; 500 μg/dish): 57.33 ± 6.94
AAT: arrhythmic occurrence time, Time [1]: 19.72 ± 4.42 min
VF (ventricular fibrillation) Incidence rate (%) [1]: 38%
VPS (ventricular premature beats) Incidence rate (%) [1]: 50%
VT (ventricular tachycardia) Incidence rate (%) [1]: 62.5%
protective effect: incidence/duration of VT, VF, duration of ventricular arrhythmic ([2]; 10 mg/Kg orally, rats): significantly reduced
Occurrence time ([2]; 10 mg/Kg p.o.): 15.5 ± 21.5 s
VE Duration time ([2]; 10 mg/Kg p.o.): 2.5 ± 6.4 s
VE Incidence (%) ([2]; 10 mg/Kg p.o.): 100%
VF Duration time ([2]; 10 mg/Kg p.o.): 6.6 ± 7.2 s
VF Incidence (%) ([2]; 10 mg/Kg p.o.): 22.2%
VT Duration time ([2]; 10 mg/Kg p.o.): 32.1 ± 26.1 s
VT Incidence (%) ([2]; 10 mg/Kg p.o.): 66.7%
protective effect: incidence/duration of VT, VF, duration of ventricular arrhythmic ([2]; 30 mg/Kg orally, rats): all reduced
Occurrence time ([2]; 30 mg/Kg p.o.): 9.6 ± 9.2 s
VE Duration time ([2]; 30 mg/Kg p.o.): 0.2 ± 0.5 s
VE Incidence (%) ([2]; 30 mg/Kg p.o.): 100%
VF Duration time ([2]; 30 mg/Kg p.o.): 3.2 ± 5.5 s
VF Incidence (%) ([2]; 30 mg/Kg p.o.): 11.1* %
VT Duration time ([2]; 30 mg/Kg p.o.): 18.0 ± 11.4 s
VT Incidence (%) ([2]; 30 mg/Kg p.o.): 66.7%
Occurrence time ([2]; 100 mg/Kg p.o.): 9.0 ± 19.7 s
VE Duration time ([2]; 100 mg/Kg p.o.): 2.2 ± 63 s
VE Incidence (%) ([2]; 100 mg/Kg p.o.): 88.9%
VF Duration time ([2]; 100 mg/Kg p.o.): 5.1 ± 7.8 s
VF Incidence (%) ([2]; 100 mg/Kg p.o.): 22.2%
VT Duration time ([2]; 100 mg/Kg p.o.): 31.1 ± 21.3 s
VT Incidence (%) ([2]; 100 mg/Kg p.o.): 44.4** %
protective effect: incidence/duration of VT, duration of ventricular arrhythmic ([2]; 100 mg/kg orally, rats): reduced
TA100 +S9 (TA100; 0.5 μg/dish): 95.00 ± 10.23
TA100 −S9 (TA100; 0.5 μg/dish): 83.00 ± 14.14
TA100 +S9 (TA100; 5 μg/dish): 102.67 ± 21.06
TA100 −S9 (TA100; 5 μg/dish): 62.00 ± 10.80
TA100 +S9 (TA100; 50 μg/dish): 100.00 ± 6.16
TA100 −S9 (TA100; 50 μg/dish): 67.67 ± 22.05
TA100 +S9 (TA100; 500 μg/dish): 100.67 ± 4.49
TA100 −S9 (TA100; 500 μg/dish): 72.33 ± 23.67
TA102 +S9 (TA102; 0.5 μg/dish): 205.33 ± 17.98
TA102 −S9 (TA102; 0.5 μg/dish): 199.67 ± 17.13
TA102 +S9 (TA102; 5 μg/dish): 216.00 ± 21.42
TA102 −S9 (TA102; 5 μg/dish): 224.67 ± 16.34
TA102 +S9 (TA102; 50 μg/dish): 250.67 ± 15.43
TA102 −S9 (TA102; 50 μg/dish): 195.33 ± 35.22
TA102 +S9 (TA102; 500 μg/dish): 233.33 ± 16.11
TA102 −S9 (TA102; 500 μg/dish): 143.67 ± 19.01
